One assay has as its target T1, CDK1/cyclinB (Homo sapiens, UniProt P06493).
T1 construct: purchased Invitrogen PV3292
In words: Z'-LYTE kinase assay CDK1/cyclinB. Format: biochemical. To be noted: read-out: Kinase inhibition, IC50 CDK1B. The procedure:
(§1) Kinase assays. The compounds from the example above were tested for their ability to inhibit kinases. Recombinant human CDK2/cyclinA (PV3267), CDK1/cyclinB (PV3292), CDK5/p35 (PV3000) and Aurora A (PV3612) were purchased from Invitrogen (Carlsbad, Calif., USA). Kinase dosage and Z′-LYTE™ substrate for each kinase assay is as follows: CDK2/cyclinA-8 ng/reaction, Ser/Thr 12 Peptide; CDK1/cyclinB-0.8 ng/reaction, Ser/Thr 12 Peptide, CDK5/p35-0.8 ng/reaction, Ser/Thr 12 Peptide, and Aurora A-16 ng/reaction, Ser/Thr 1 Peptide. All enzymatic assays were performed using Z′-LYTE™ Kinase Assay Kits and were carried out following protocols provided by Invitrogen. To prepare stock solutions, compounds were dissolved at 10 mM in 100% DMSO and stored at 4° C. in amber glass vials. Enzyme reactions were initiated by adding recombinant enzyme and Z′-LYTE™ Ser/Thr peptide substrate and ATP mixture to 384-well plates containing diluted test compounds. Kinase and corresponding peptide substrate were incubated for 1 hr at room temperature in the presence of varying amounts of test compound with reaction buffer (20 μM ATP, […] [pH 7.5], 5 mM MgCl2, 0.5 mM EGTA, 0.005% Brij-35). Development buffer was added and incubated for another one hour at room temperature. Reactions were terminated by addition of stop buffer, and fluorescence emission intensity ratio 445 nm/520 nm (excited at 400 nm) was quantified by VICTOR-3 Multilabel Reader (Perkin-Elmer, Waltham, Mass., USA). Phosphorylation was calculated from the emission ratio. IC50 was determined using Sigmoid curve-fitting software Origin 6.0 (MicroCal, LLC, Northampton, Mass., USA).

The target of another assay is T2, CDK2/cyclinA (Homo sapiens, UniProt P24941).
T2 construct: purchased Invitrogen PV3267
As to the kind of experiment: Z'-LYTE kinase assay CDK2/cyclinA. Format: biochemical. The following applies: read-out: Kinase inhibition, IC50 CDK2A. Here is the method: as §1

Another assay has as its target T3, CDK5/p35 (Homo sapiens, UniProt Q00535).
T3 construct: purchased Invitrogen PV3000
In words: Z'-LYTE kinase assay CDK5/p35. Format: biochemical. The following applies: read-out: Kinase inhibition, IC50 CDK5/p35. Here is the method: as §1

Another assay has as its target CDK9T1 (Homo sapiens, UniProt P50750). In words: Kinase assay CDK9T1 (Table I). Format: biochemical. The following applies: read-out: Kinase inhibition, IC50 CDK9T1. The procedure: [The source words this procedure for another target and reports this target under the same test.] as §1
The next assay has as its target T4, Aurora A (Homo sapiens, UniProt O14965).
T4 construct: purchased Invitrogen PV3612
T4 sequence (O14965 1-403): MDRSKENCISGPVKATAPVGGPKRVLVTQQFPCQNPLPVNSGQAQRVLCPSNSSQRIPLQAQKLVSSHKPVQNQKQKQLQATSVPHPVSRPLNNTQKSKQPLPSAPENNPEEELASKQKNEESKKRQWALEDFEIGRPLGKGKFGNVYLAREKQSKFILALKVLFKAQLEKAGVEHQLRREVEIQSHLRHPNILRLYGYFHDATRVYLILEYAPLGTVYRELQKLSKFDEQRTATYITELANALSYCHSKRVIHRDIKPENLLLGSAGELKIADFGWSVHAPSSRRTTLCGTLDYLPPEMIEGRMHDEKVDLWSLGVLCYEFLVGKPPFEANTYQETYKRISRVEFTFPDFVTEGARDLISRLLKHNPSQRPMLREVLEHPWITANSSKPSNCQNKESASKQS
As to the kind of experiment: Z'-LYTE kinase assay Aurora A. To be noted: read-out: Kinase inhibition, IC50 Aurora A. The assay is classed as biochemical. Here is the method: as §1

The next assay addresses Aurora B (Homo sapiens, UniProt Q96GD4). In words: Kinase assay Aurora B (Table I). Format: biochemical. The following applies: read-out: Kinase inhibition, IC50 Aurora B. Here is the method: [The source words this procedure for another target and reports this target under the same test.] as §1
The subject of another assay is HeLa cells. In words: 72 h MTT cytotoxicity assay HeLa. The assay is classed as cell-based. The following applies: Homo sapiens. An excerpt: (§2) MIT cytotoxicity assay. The compounds of the invention were subjected to a standard cellular proliferation assay using human cell lines. HeLa cells (Human cervix adenocarcinoma cell line, ATCC NO, CCL-2); A549 cells (Human lung carcinoma cells line, ATCC NO, CCL-185); U2OS cells (Human osteosarcoma cell line, ATCC NO, HTB-96); Eca-109 cells (Human esophageal carcinoma cell line); HepG2 (Human hepatocellular liver carcinoma cell line, ATCC NO, HB-8065); K562 cells (Human chronic myelogenous leukemia cell line, ATCC NO, CCL-243); SK-MEL-28 (Human malignant melanoma cell line, ATCC NO, HTB-72); Molt-4 (Human acute lymphoblastic leukemia cell line, ATCC NO, CRL-1582); H460 (Human large cell lung cancer cell line, ATCC NO, HTB-177); MDA-MB-231 (Human breast adenocarcinoma cell line, ATCC NO, HTB-26); MCF7 (Human breast adenocarcinoma cell line, ATCC NO, HTB-22); ACHN (Human renal cell adenocarcinoma cell line, ATCC NO, CRL-1611); PC-3M (Human prostate adenocarcinoma cell line, ATCC NO CRL-1435); HL60 (Human acute promyelocytic leukemia cell line, ATCC NO, CCL-240); THP-1 (Human acute monocytic leukemia, ATCC NO, TIB-202); Jurkat (Human acute T cell leukemia cell line, ATCC NO, CRL-2063); HCT-116 (Human colorectal carcinoma cell line, ATCC NO, CCL-247); HT-29 (Human colorectal adenocarcinoma cell line, ATCC NO, HTB-38™); WI-38 (Human normal lung cell line, ATCC NO, CCL-75); MRC-5 (Human normal lung cell line, ATCC NO, CCL-171).
(§3) HepG2, MDA-MB-231, WI-38 and MRC-5 cells were obtained from Shanghai Institute of Cell Biology, Chinese Academy of Sciences (Shanghai 200031, China). A549, HeLa, K562, MCF7, ACHN, H460, U2OS, Eca-109, MCF7, HL60, THP-1, Jurkat, HCT-116, HT-29, PC-3M, SK-MEL-28, Molt-4, H460 and […] cells were purchased from ATCC (American Type Culture Collection, USA).
(§4) Standard 72 h MTT (thiazolye blue; 3-[4,5-dimethylthiazol-2-yl]-2,5-diphenyltetrazolium bromide) assays were performed. Briefly, the cell lines used in this study were recovered and cultured according to the conditions recommended. 4000 cells per well were seeded into 96-well plates according to doubling time and incubated overnight at 37° C. Compounds were prepared in DMSO and a ½ dilution series in 100 μl cell culture media, added to cells (in duplicates) with the final DMSO concentration of 0.025%, and incubated for 72 hrs at 37° C. MTT solution (5 mg/ml) was added at 10 μl per well and incubated in the dark at 37° C. for 4 hr. Culture medium and MTT solution was removed. MTT dye was solubilised with 100 μl per well of DMSO with agitation. Absorbance was read at 562 nm and data analyzed using Sigmoid curve-fitting software Origin 6.0 (MicroCal, LLC, USA) to determine IC50 value.

For another assay, the system named is A549 cells. As to the kind of experiment: 72 h MTT cytotoxicity assay A549. The assay is classed as cell-based. To be noted: Homo sapiens; A549, 72 hrs.
From the text: as §2, §3, §4
(Tetrazolium assays rely on reduction of a dye to a coloured formazan, in cell work by metabolically active cells.)

A further assay relates to U2OS cells. In words: 72 h MTT cytotoxicity assay U2OS. The assay is classed as cell-based. To be noted: Homo sapiens.
From the text: as §2, §3, §4

The subject of the next assay is Eca-109 cells. In words: 72 h MTT cytotoxicity assay Eca-109. Format: cell-based. To be noted: Homo sapiens; Eca-109, 72 hrs.
From the text: as §2, §3, §4

In a further assay the test system is HepG2. In words: 72 h MTT cytotoxicity assay HepG2. The assay is classed as cell-based. To be noted: Homo sapiens; HepG2, 72 hrs.
From the text: as §2, §3, §4

Another assay relates to K562 cells. In words: 72 h MTT cytotoxicity assay K562. Format: cell-based. The following applies: Homo sapiens; K562, 72 hrs.
From the text: as §2, §3, §4

The test system of the next assay is MCF7. In words: 72 h MTT cytotoxicity assay MCF7. The assay is classed as cell-based. The following applies: Homo sapiens; MCF7, 72 hrs.
From the text: as §2, §3, §4

A further assay relates to SK-MEL-28-luc. As to the kind of experiment: 72 h MTT cytotoxicity assay SK-MEL-28-luc. Format: cell-based. The following applies: Homo sapiens.
From the text: as §2, §3, §4

Another assay relates to Molt-4-luc. In words: 72 h MTT cytotoxicity assay Molt-4-luc. Format: cell-based. The following applies: Homo sapiens.
From the text: as §2, §3, §4

The next assay has as its system H460-luc. As to the kind of experiment: 72 h MTT cytotoxicity assay H460-luc. To be noted: Homo sapiens, NCI-H460-Luc; H460-luc, 72 hrs; read-out: Cytotoxicity, MTT 72 hrs, IC50 H460-luc. Format: cell-based.
From the text: as §2, §3, §4

Another assay concerns MDA-MB-231-luc. In words: 72 h MTT cell viability MDA-MB-231-luc. Format: cell-based. The following applies: Homo sapiens.
From the text: as §2, §3, §4

Another assay has as its system ACHN-luc. In words: 72 h MTT cell viability ACHN-luc. The assay is classed as cell-based. The following applies: Homo sapiens.
From the text: as §2, §3, §4

The next assay has as its system WI-38. As to the kind of experiment: 72 h MTT cell viability WI-38 (normal lung). Format: cell-based. The following applies: Homo sapiens; WI-38, normal lung cell line.
From the text: as §2, §3, §4

Drawing on patent US8309550B2, “Kinase inhibitors and their use as pharmaceutical agents” (Shanghai Genomics, Inc., priority 2011, dated 2012), this text covers IC50 for four compounds.

The structures appear in SMILES notation.

T3 sequence (Q00535 whole entry): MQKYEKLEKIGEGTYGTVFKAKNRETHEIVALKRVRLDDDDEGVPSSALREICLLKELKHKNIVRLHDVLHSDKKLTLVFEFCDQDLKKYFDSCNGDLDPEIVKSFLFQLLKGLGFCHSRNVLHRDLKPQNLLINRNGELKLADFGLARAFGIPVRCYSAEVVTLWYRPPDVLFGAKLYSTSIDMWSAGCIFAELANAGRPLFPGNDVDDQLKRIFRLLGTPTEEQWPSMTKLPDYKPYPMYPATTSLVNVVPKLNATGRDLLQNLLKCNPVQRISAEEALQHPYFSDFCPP
T3 sequence (Q15078 whole entry partner): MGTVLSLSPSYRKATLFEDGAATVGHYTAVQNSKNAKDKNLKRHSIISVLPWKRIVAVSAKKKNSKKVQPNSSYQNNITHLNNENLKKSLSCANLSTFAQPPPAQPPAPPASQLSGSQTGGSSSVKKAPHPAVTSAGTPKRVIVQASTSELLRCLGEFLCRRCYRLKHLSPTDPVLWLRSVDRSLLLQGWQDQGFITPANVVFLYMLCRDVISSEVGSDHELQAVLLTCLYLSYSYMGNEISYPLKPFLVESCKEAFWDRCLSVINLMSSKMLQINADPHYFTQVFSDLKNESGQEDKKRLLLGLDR
Aurora B, sequence (Q96GD4 whole entry): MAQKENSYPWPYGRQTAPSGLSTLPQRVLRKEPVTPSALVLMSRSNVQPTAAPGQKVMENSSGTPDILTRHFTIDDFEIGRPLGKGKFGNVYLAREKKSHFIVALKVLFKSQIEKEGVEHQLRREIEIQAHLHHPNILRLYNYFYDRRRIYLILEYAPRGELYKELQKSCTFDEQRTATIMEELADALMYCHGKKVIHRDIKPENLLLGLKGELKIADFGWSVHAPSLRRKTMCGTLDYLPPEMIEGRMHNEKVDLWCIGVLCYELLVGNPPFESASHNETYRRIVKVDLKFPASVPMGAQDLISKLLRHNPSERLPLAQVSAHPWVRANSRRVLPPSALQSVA
T1 sequence (P06493 whole entry): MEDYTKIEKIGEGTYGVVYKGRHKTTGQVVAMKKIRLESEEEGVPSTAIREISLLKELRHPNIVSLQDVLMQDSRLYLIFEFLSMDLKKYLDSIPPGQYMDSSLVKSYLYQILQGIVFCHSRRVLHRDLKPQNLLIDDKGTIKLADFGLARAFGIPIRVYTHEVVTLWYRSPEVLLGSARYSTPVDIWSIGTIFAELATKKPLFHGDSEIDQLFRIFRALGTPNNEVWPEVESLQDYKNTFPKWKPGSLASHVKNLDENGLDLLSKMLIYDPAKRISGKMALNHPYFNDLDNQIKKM
T1 sequence (P14635 whole entry partner): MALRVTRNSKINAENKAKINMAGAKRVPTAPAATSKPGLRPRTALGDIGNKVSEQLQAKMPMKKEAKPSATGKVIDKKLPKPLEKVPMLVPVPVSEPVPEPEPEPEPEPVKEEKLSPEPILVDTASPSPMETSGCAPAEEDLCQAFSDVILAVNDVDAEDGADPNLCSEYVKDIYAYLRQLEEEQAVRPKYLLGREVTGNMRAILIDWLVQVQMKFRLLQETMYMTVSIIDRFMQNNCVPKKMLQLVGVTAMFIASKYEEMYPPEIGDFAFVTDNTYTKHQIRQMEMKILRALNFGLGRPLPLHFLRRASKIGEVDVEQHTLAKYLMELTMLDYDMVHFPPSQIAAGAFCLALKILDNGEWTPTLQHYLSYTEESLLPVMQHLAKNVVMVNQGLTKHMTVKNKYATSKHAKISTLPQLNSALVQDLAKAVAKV
CDK9T1, sequence (P50750 whole entry): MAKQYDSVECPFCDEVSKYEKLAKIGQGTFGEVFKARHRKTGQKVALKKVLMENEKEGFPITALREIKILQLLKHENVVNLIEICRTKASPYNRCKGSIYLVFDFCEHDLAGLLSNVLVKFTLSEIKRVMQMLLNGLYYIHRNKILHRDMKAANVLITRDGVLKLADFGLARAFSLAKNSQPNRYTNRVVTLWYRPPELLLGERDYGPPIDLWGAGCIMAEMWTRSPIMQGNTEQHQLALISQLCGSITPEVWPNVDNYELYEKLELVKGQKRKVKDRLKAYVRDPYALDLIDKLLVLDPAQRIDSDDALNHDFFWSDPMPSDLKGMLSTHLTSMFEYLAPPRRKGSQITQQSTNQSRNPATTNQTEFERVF
CDK9T1, sequence (O60563 whole entry partner): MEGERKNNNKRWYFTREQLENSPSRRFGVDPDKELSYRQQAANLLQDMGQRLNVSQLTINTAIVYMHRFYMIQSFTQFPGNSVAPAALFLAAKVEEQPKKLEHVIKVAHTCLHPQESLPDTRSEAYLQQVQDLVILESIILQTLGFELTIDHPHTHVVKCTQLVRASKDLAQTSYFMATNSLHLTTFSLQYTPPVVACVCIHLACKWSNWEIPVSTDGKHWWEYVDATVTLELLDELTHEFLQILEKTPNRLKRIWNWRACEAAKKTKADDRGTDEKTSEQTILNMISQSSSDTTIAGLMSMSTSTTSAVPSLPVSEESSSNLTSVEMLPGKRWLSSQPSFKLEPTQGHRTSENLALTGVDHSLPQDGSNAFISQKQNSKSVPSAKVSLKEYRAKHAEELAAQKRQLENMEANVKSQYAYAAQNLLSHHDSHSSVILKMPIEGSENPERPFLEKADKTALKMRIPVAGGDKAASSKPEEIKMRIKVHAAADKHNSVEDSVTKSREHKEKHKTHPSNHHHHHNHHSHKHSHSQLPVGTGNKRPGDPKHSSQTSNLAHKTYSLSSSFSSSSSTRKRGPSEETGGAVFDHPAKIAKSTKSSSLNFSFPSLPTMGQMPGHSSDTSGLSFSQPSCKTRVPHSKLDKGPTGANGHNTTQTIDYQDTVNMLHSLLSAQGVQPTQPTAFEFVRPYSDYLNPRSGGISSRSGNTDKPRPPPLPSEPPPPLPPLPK

Turning to `CCn1cc(-c2ccnc(Nc3cccc(C(N)=O)c3)n2)c2cccnc21` [Compound 19, 3-(4-(1-Ethyl-1H-pyrrolo[2,3-b]pyridin-3-yl)pyrimidin-2-ylamino)benzamide], the IC50 on CDK1/cyclinB was 1.34 µM; at CDK2/cyclinA it was 0.272 µM; on CDK5/p35, 3.18 µM; on CDK9T1 it was 0.11 µM; on Aurora A, 0.29 µM; at Aurora B, 1.44 µM. The IC50 in the assay on HeLa cells was 4.33 µM; in the assay with A549 cells, 3.43 µM; in the assay on U2OS cells it was 9.54 µM; in the assay on Eca-109 cells, above 10 µM; in the assay with HepG2 it was 1.41 µM; with K562 cells it was 15.4 µM. The IC50 in the assay with MCF7 is 3.96 µM; with SK-MEL-28-luc, above 10 µM; with Molt-4-luc, 6.66 µM; in the assay on H460-luc, 3.63 µM; with MDA-MB-231-luc it was 8.51 µM; in the assay on ACHN-luc it was 3.46 µM. Further, the IC50 in the assay with WI-38 was above 10 µM.

Turning to `Cn1cc(-c2ccnc(Nc3cccc(O)c3)n2)c2ccccc21` [Compound 1, 3-(4-(1-Methyl-1H-indol-3-yl)pyrimidin-2-ylamino)phenol], the IC50 worked out at 2.5 µM on CDK1/cyclinB; 0.543 µM on CDK2/cyclinA; 2.61 µM at CDK5/p35; 0.28 µM on Aurora A; 0.34 µM on Aurora B; 4.7 µM with HeLa cells. Moreover, the IC50 in the assay on A549 cells was found to be 6.03 µM; in the assay on U2OS cells, 5.99 µM; with Eca-109 cells it was 14.2 µM; with HepG2 it was 4.55 µM; in the assay on K562 cells, 4.78 µM; in the assay on MCF7, 10.1 µM. Also, the IC50 in the assay on SK-MEL-28-luc is 6.47 µM; in the assay on Molt-4-luc, 6.4 µM; with H460-luc it was 6.19 µM; in the assay on MDA-MB-231-luc it was 6.33 µM; in the assay on ACHN-luc it was 9.82 µM; with WI-38 it was above 10 µM.

As to `CCCn1cc(-c2ccnc(Nc3cccc([N+](=O)[O-])c3)n2)c2cccnc21` [Compound 17, N-(3-Nitrophenyl)-4-(1-propyl-1H-pyrrolo[2,3-b]pyridin-3-yl)pyrimidin-2-amine], the IC50 at CDK1/cyclinB was 7.64 µM; on CDK2/cyclinA it was 0.463 µM; on CDK5/p35, above 10 µM; on CDK9T1, 0.16 µM; on Aurora A it was 1.16 µM; on Aurora B, above 10 µM. Moreover, the IC50 is 4.22 µM in the assay with HeLa cells; 2.19 µM in the assay on A549 cells; 4.91 µM in the assay with U2OS cells; 6.06 µM in the assay on Eca-109 cells; 1.19 µM in the assay with HepG2; 2.31 µM in the assay with K562 cells. In addition, the IC50 in the assay on MCF7 is 4.93 µM; in the assay with SK-MEL-28-luc, 5.48 µM; with Molt-4-luc, 6.29 µM; in the assay on H460-luc, 2.49 µM; in the assay with MDA-MB-231-luc, 2.63 µM; in the assay on ACHN-luc it was 2.45 µM. The IC50 in the assay on WI-38 was above 10 µM.

`Cn1cc(-c2ccnc(Nc3ccc(O)cc3)n2)c2ccccc21` [Compound 2, 4-(4-(1-Methyl-1H-indol-3-yl)pyrimidin-2-ylamino)phenol]: the IC50 was 0.742 µM on CDK1/cyclinB; 0.305 µM on CDK2/cyclinA; 0.95 µM on CDK5/p35; 0.043 µM at CDK9T1; 0.15 µM on Aurora A; 0.2 µM at Aurora B. The IC50 is 4.93 µM in the assay with HeLa cells; 8.29 µM with A549 cells; 7.33 µM in the assay on U2OS cells; 14.5 µM in the assay with Eca-109 cells; 5.97 µM in the assay on HepG2; 6.17 µM with K562 cells. The IC50 in the assay with MCF7 was 9.56 µM; in the assay with SK-MEL-28-luc it was 6.37 µM; in the assay with Molt-4-luc, 6.3 µM; with H460-luc, 6.39 µM; in the assay on MDA-MB-231-luc, 6.16 µM; in the assay on ACHN-luc, 23.4 µM. The IC50 in the assay with WI-38 is above 10 µM.
